What was measured:
[1] = test system: cultured human malignant glioma cells (U87MG, T98G, U251MG); experiment: Relationship between peptide surfactant concentration and siRNA introduction efficiency (RFU); assay type: cell-based
Experimental: The manner in which the efficiency of introduction of siRNA into cells is dependent on concentration of peptide surfactant was examined by microscopic observation of fluorescent-labeled siRNA.
(§1) <Materials> • *Peptide surfactant • Sequence: Ac-AAAAAAK-NH2 (SEQ ID NO: 17) (Celtek) • *Peptide surfactant concentrations: • 0, 0.5, 1.0, 5.0, 10.0, 20.0, 25.0 μg/ml • *siRNA • siRNA/MMP-2 (Santa Cruz) • *siRNA fluorescent labeling reagent • Label IT Cy-3 Labeling Kit (Mirus) • *Cells • Three types of cultured human malignant glioma cells (U87MG, T98G, U251MG, acquired from ATCC)
siRNA/MMP-2 was labeled with Cy3 using the siRNA fluorescent labeling reagent in accordance with the Minis standard protocol. The labeled siRNA was then mixed with the peptide surfactant. siRNA to a final concentration of 50 nM and peptide surfactant to final concentrations of 0, 0.5, 1, 5, 10, 20 and 25 μg/ml were administered to 1×10^5 cells seeded in a 24-well plate containing medium at 1 ml/well, followed by culturing for 8 hours. After washing the wells with PBS, the cells were recovered and transferred to a 96-well plate where they were measured for optical absorbance.

[2] = Cytotoxicity, MTT cell proliferation assay (Cell Titer 96 Aqueous One Solution); assay type: cell-based; conditions: human, U87MG malignant glioma cells
Experimental: Cytotoxicity was evaluated using cultured human cells for a peptide surfactant and two types of currently widely used cationic liposome-mediated gene transfer agents.
<Materials> • *Added Substances • 1. Peptide surfactant (sequence: Ac-AAAAAAK-NH2(SEQ ID NO: 17), Celtek) • 2. Lipofectamine 2000 (Invitrogen) • 3. siFECTOR (B-Bridge International, Inc.) • *Cells • Cultured human malignant glioma cells (U87MG, acquired from ATCC) • *MTT Assay Reagent (for cell proliferation assay) • Cell Titer 96 Aqueous One Solution Cell Proliferation Assay Kit (Promega)
The cells were seeded in a 96-well plate in accordance with the recommended ATCC protocol (cell density: 2×10^4/well) followed by incubating overnight. The medium was replaced with fresh medium and the substances were added (final concentrations: 0.0005, 0.001, 0.005, 0.01, 0.05, 0.1, 0.5, 1, 5, 10, 25, 50, 75, 100, 250 and 500 μg/ml). The cells were cultured for 24 hours. After culturing, Cell Titer 96 Aqueous One Solution was added (20 μl/well) followed by measuring optical absorbance at 495 nm with a plate reader 4 hours later to quantify the number of viable cells.

[3] = test system: cultured human malignant glioma cells (U87MG, T98G, U251MG); experiment: Time-based changes in amount of siRNA introduced into cells (RFU); assay type: cell-based; conditions: siRNA 50 nM, peptide surfactant 20 μg/ml (FIG. 2)
Experimental: Time-based changes in the amounts of siRNA introduced into cells by peptide surfactant were examined by microscopic observation of fluorescent-labeled siRNA.
as §1, with “Cruz) • siRNA fluorescent labeling” for “Cruz) • *siRNA fluorescent labeling”
siRNA/MMP-2 was labeled with Cy3 using the siRNA fluorescent labeling reagent in accordance with the Minis standard protocol. The labeled siRNA was then mixed with the peptide surfactant. siRNA to a final concentration of 50 nM and peptide surfactant to a final concentration of 20 μg/ml were administered to 1×10^5 cells seeded in a 24-well plate containing medium at 1 ml/well, followed by incubating for 0.5, 1, 2, 4, 8, 16 and 24 hours. After washing the wells with PBS, the cells were recovered and transferred to a 96-well plate where they were measured for optical absorbance.

MMP-2 mRNA = experiment: RNA interference effect by RT-PCR (MMP-2 target, beta-actin internal standard); assay type: cell-based, human; conditions: siRNA 50 nM/peptide surfactant 20 μg/ml, 8 hours, U87MG, T98G, U251MG (FIGS. 4 to 6)
Experimental: siRNA introduced into cells by peptide surfactant was confirmed to have RNA interference ability by RT-PCR.
<Materials> • *Peptide surfactant • Sequence: Ac-AAAAAAK-NH2 (SEQ ID NO: 17) (Celtek) • *Cells • Three types of cultured human malignant glioma cells (U87MG, T98G, U251MG, acquired from ATCC)
1×10^5 cells were seeded into a 24-well plate and cultured overnight in accordance with the ATCC standard protocol. After removing the medium, the following solutions were added to the final concentrations indicated below followed by culturing for 8 hours under the same culturing conditions as previously described. • (1) Blank control (medium only) • (2) Random oligo siRNA (Dharmacon)/peptide surfactant 20 μg/ml • (3) siRNA 50 nM • (4) Peptide surfactant 20 μg/ml • (5) siRNA 50 nM/peptide surfactant 20 μg/ml
The siRNA was reverse-transcribed to cDNA using the Taqman Gene Expression Cell-to-Ct Kit (Applied Biosystems). Quantitative analysis was carried out using the Applied Biosystems 7500 Real-Time PCR System using MMP-2 for the target and beta-actin for the internal standard by Gene Expression Assay (Applied Biosystems).

[4] = test system: cultured human malignant glioma cells (U87MG, T98G, U251MG); experiment: Introduction of Cy3-labeled siRNA into cells, fluorescence microscopy; assay type: cell-based; conditions: siRNA 50 nM plus peptide surfactant 20 μg/ml, 8 hours, all three types of cells
Experimental: The introduction of siRNA into cells by peptide surfactant was confirmed by microscopic observation of fluorescent-labeled siRNA.
as §1, with “(Celtek)” for “(Celtek) • *Peptide surfactant concentrations: • 0, 0.5, 1.0, 5.0, 10.0, 20.0, 25.0 μg/ml”, “U251MG, each” for “U251MG,”
siRNA/MMP-2 was labeled with Cy3 using the siRNA fluorescent labeling reagent in accordance with the Mirus protocol. 5000 of the cells were seeded into a chambered slide glass in accordance with the ATCC protocol and incubated for overnight. After removing the medium, siRNA to a final concentration of 50 nM and peptide surfactant to a final concentration of 20 μg/ml were added to 1 ml of medium followed by culturing for 8 hours. In a control group, only siRNA was cultured at a final concentration of 50 nM in 1 ml of medium.

Ac-AAAAAAK-NH2 [peptide surfactant, Ac-AAAAAAK-NH2]
RFU versus peptide surfactant concentration (introduction of siRNA into cells) ([1]; 0-25 μg/ml peptide surfactant, siRNA 50 nM, 8 hours, all three cell types (FIG. 3)): increases in RFU in proportion to increases in concentration | concentration at which dose-dependent increases in RFU weakened ([1]; Y98G cells, siRNA 50 nM, 8 hours): ≥ 10 µg/mL | introduction of siRNA into cells ([1]; peptide surfactant 20 μg/ml for 8 hours (with results of Example 3)): adequately and significantly result in introduction of siRNA into cells | CC50 at 24 h [2]: 286 µg/mL | relative fluorescence units (RFU), siRNA incorporated into cells ([3]; culturing for 1 to 8 hours): increased nearly proportionately | RFU levels ([3]; culturing for longer than 8 hours): essentially reached a plateau | Expression of MMP-2 mRNA (MMP-2 mRNA): significantly inhibited | Uptake of Cy3-labeled siRNA [4]: confirmed

Source: patent US9133484B2, “Transfection agent” (3-D MATRIX, LTD., priority 2008, dated 2015)
